Where “and” joins values, the source holds several entries; their conditions need not be identical. Equal values may be shown once.
Columns and labels:
[1] = tested on: Salmonella typhimurium TA98; assay: Bacterial reverse mutation test (Ames), strain TA98; assay type: cell-based; details: for Revertant Colonies (With S9), plates A, B, C / Revertant Colonies (Without S9), plates A, B, C: individual plates
Protocol: The reverse mutation test was performed to determine the potential of BondLynx and/or its metabolites to induce reverse mutations at the histidine locus of Salmonella typhimurium.[26],[27] The test employs strains of Salmonella typhimurium carrying mutations in the genes involved in histidine production, such that they are only able to grow in histidine supplemented culture media. Upon exposure to mutagenic materials, these mutations may be reversed, thereby restoring the ability to grow in histidine-free media. When grown in the presence of the test compound on media with a small amount of histidine, tester strains grow briefly to allow the opportunity for mutation, followed by proliferation of revertant colonies upon depletion of the provided histidine. Thus, the number of revertant colonies following incubation is indicative of the ability of the test compound to induce mutations.
Tests were performed on two strains of the bacteria (TA98 and TA100) in the absence and presence of an exogenous mammalian metabolic activation system (5% v/v S9). Positive controls and BondLynx were suspended in dimethyl sulfoxide (DMSO) for testing, and DMSO served as the vehicle control. Positive controls consisted of 2-nitrofluorene (10 μg/plate) for the TA98 strain without S9, methyl mesylate (650 μg/plate) for the TA100 strain without S9, and 2-aminoanthracene for both strains with S9 (1 μg/plate for TA98 and 5 μg/plate for TA100). Eight concentrations of BondLynx (1.7, 5.4, 17, 52, 164, 512, 1600 and 5000 μg/plate) were tested in triplicate. The vehicle control was tested in triplicate and the positive controls were tested singular.
Test solutions were prepared by pre-incubating .1 mL fresh bacterial culture (10^9 cells/mL), .1 mL of a BondLynx dilution or control solution, and .5 mL of S9 mix or .1 M phosphate buffer for 30 min before adding to 3 mL of molten (45 ± 2°C) top agar. After mixing in a vortex, agar solutions were poured onto selective agar plates. Upon solidification, the prepared plates were inverted and incubated at 37.0 ± 1.0°C for 48 ± 4 h. Following incubation, revertant colonies were counted with a Sorcerer Colony Counter. The condition of the bacterial background lawn was evaluated macroscopically and/or microscopically using a dissecting microscope when considered necessary.

[2] = tested on: Balb/c 3T3 fibroblasts (clone 31); assay: 3T3 Neutral Red uptake cytotoxicity and phototoxicity assay; details: for Corrected Mean OD540: 8 wells
Protocol: (§1) The 3T3 Neutral Red uptake assay was used to evaluate the phototoxicity of BondLynx. The NRU assay makes use of Neutral Red dye, a weak cationic dye that penetrates the cell membrane by non-ionic passive diffusion and accumulates in lysosomes. Cytotoxicity of the test material is evaluated by measuring the OD540 to assess the uptake of Neutral Red dye.[28],[29] […] By measuring cytotoxicity in the absence vs presence of UV and visible light, the phototoxicity of the test material can be determined.[30],[31]
(§2) Cells were routinely trypsinized and passaged, at least once weekly, with a split ratio 1:3 to 1:4 to achieve a near confluent culture.
(§3) Stock solutions of both controls were freshly prepared on the day of testing. The vehicle control was 1% DMSO in EBSS for the positive control, EBSS for the negative control, and .5% ethanol in EBSS for BondLynx. BondLynx was dissolved in ethanol for testing. […] All controls and BondLynx were handled in the dark and tested in 8-fold.
(§4) In preparation for testing, cultures of 3T3 fibroblasts were trypsinized and resuspended in culture medium. […] A total of six plates were prepared in this manner – two each for the positive control, the negative control, and BondLynx. Following incubation, the cell culture medium was removed, and the wells washed with DPBS (Dulbecco’s phosphate-buffered saline). A 200 μL aliquot of each dilution of the test compound (BondLynx or a control) was added the first eight columns, and the appropriate vehicle control was added to the last four columns. All plates were incubated an additional 60 min before irradiating one plate for each test compound (+Irr) in a solar simulator with a WG320 nm filter for 22 min (equivalent to 5 J/cm^2 UV-A), while the second plate for each test compound (–Irr) was kept in the dark at room temperature. Subsequently, the test solutions were removed from the plates, and the cells were washed once with DPBS and suspended in 200 μL of supplemented DMEM to incubate for an additional 20-24 h.
(§5) Immediately following incubation, the confluency of each plate was visually assessed, and the culture medium was replaced with 100 μL of Neutral Red dye (50 μg/mL). The plates were incubated another 3.5 h before removing the dye, washing with 150 μL of DPBS, and shaking for 20-40 min in 150 μL Neutral Red destain solution (ethanol:acetic acid:distilled water, 50:1:49). The optical density at 540 nm was measured for each well and corrected by subtracting the appropriate blank.

[3] = as above; details: mouse, Balb/c 3T3 fibroblasts (clone 31); for viability: Viability of cells over all tested concentrations, .316 to 1000 μg/mL
Protocol: as §1, §2, §3, §4, §5

[4] = TA98, without S9, 1600 μg/plate
[5] = TA98, without S9, 5000 μg/plate

FC(F)(F)C1(c2ccc(C(c3ccc(C4(C(F)(F)F)N=N4)cc3)(C(F)(F)F)C(F)(F)F)cc2)N=N1 [BondLynx, 2,2-bis-[4-[3-(trifluoromethyl)-3H-diazirin-3-yl]phenyl]hexafluoropropane]
Mutagenicity conclusion ([1]; TA98, absence and presence of S9, 1.7 to 5000 μg/plate): non-mutagenic | Total number of revertants relative to concurrent vehicle control ([1]; TA98, vs DMSO vehicle control): less than three times | Revertant Colonies (With S9), Mean ± SD ([1]; TA98, with S9, 1.7 μg/plate): 20 ± 9 | Revertant Colonies (With S9), plates A, B, C ([1]; TA98, with S9, 1.7 μg/plate): 10 and 23 and 26 | Revertant Colonies (With S9), Mean ± SD ([1]; TA98, with S9, 5.4 μg/plate): 13 ± 8 | Revertant Colonies (With S9), plates A, B, C ([1]; TA98, with S9, 5.4 μg/plate): 4 and 15 and 19 | Revertant Colonies (With S9), Mean ± SD ([1]; TA98, with S9, 1600 μg/plate): 17 ± 8 | Revertant Colonies (With S9), plates A, B, C ([1]; TA98, with S9, 1600 μg/plate): 26 and 16 and 10 | Revertant Colonies (With S9), Mean ± SD ([1]; TA98, with S9, 5000 μg/plate): 13 ± 5 | Revertant Colonies (With S9), plates A, B, C ([1]; TA98, with S9, 5000 μg/plate): 8 and 16 (2×) | Revertant Colonies (Without S9), Mean ± SD ([1]; TA98, without S9, 1.7 μg/plate): 9 ± 2 | Revertant Colonies (Without S9), plates A, B, C ([1]; TA98, without S9, 1.7 μg/plate): 8 and 11 and 7 | Revertant Colonies (Without S9), Mean ± SD ([1]; TA98, without S9, 5.4 μg/plate): 8 ± 4 | Revertant Colonies (Without S9), plates A, B, C ([1]; TA98, without S9, 5.4 μg/plate): 4 and 12 and 8 | Revertant Colonies (Without S9), Mean ± SD ([1]; TA98, without S9, 17 μg/plate): 13 ± 4 | Revertant Colonies (Without S9), plates A, B, C ([1]; TA98, without S9, 17 μg/plate): 15 and 11 and 12 | Revertant Colonies (Without S9), Mean ± SD [1, 4]: 9 ± 5 | Revertant Colonies (Without S9), plates A, B, C [1, 4]: 7 and 15 and 5 | Revertant Colonies (Without S9), Mean ± SD [1, 5]: 14 ± 3 | Revertant Colonies (Without S9), plates A, B, C [1, 5]: 18 and 12 (2×) | Cytotoxicity (condition of microcolony lawn) ([1]; absence of S9, higher concentrations): slight thinning of the microcolony lawn | Cytotoxicity (condition of microcolony lawn) ([1]; presence of S9, any tested dose level): toxicity was not observed | Phototoxicity classification ([2]; 3T3 NRU phototoxicity test): non-phototoxic | Corrected Mean OD540 ([2]; +Irr, 0.316 μg/mL): 1.135 | Corrected Mean OD540 ([2]; +Irr, 1 μg/mL): 1.116 | Corrected Mean OD540 ([2]; +Irr, 3.16 μg/mL): 1.13 | Corrected Mean OD540 ([2]; +Irr, 10 μg/mL): 1.149 | Corrected Mean OD540 ([2]; +Irr, 31.6 μg/mL): 1.19 | Corrected Mean OD540 ([2]; +Irr, 100 μg/mL): 1.236 | Corrected Mean OD540 ([2]; +Irr, 316 μg/mL): 1.24 | Corrected Mean OD540 ([2]; +Irr, 1000 μg/mL): 1.18 | IC50 (50% inhibition of Neutral Red uptake), presence of irradiation ([2]; +Irr, 5 J/cm^2 UV-A): no IC50 | Photo Irritation Factor (PIF) ([2]; non-irradiated IC50 divided by irradiated IC50): no PIF could be calculated | Cytotoxicity ([2]; presence and absence of UV-A, .316 to 1000 μg/mL): no cytotoxicity | IC50 (50% inhibition of Neutral Red uptake), absence of irradiation ([2]; –Irr): no IC50 | Corrected Mean OD540 ([2]; –Irr, 0.316 μg/mL): 1.17 | Corrected Mean OD540 ([2]; –Irr, 1 μg/mL): 1.16 | Corrected Mean OD540 ([2]; –Irr, 3.16 μg/mL): 1.15 | Corrected Mean OD540 ([2]; –Irr, 10 μg/mL): 1.12 | Corrected Mean OD540 ([2]; –Irr, 31.6 μg/mL): 1.13 | Corrected Mean OD540 ([2]; –Irr, 100 μg/mL): 1.15 | Corrected Mean OD540 ([2]; –Irr, 316 μg/mL): 1.16 | Corrected Mean OD540 ([2]; –Irr, 1000 μg/mL): 1.07 | viability at 82 min, 0.316 μg/mL ([3]; Viability (%), +Irr): 101% | viability at 82 min, 1 μg/mL ([3]; Viability (%), +Irr): 99.6% | viability at 82 min, 3.16 μg/mL ([3]; Viability (%), +Irr): 101% | viability at 82 min, 10 μg/mL ([3]; Viability (%), +Irr): 103% | viability at 82 min, 31.6 μg/mL ([3]; Viability (%), +Irr): 106% | viability at 100 μg/mL ([3]; Viability (%), +Irr, 100 μg/mL): 110% | viability at 82 min, 316 μg/mL ([3]; Viability (%), +Irr): 111% | viability at 82 min, 1000 μg/mL ([3]; Viability (%), +Irr): 105% | viability at 82 min, 0.316 μg/mL ([3]; Viability (%), –Irr): 102% | viability at 82 min, 1 μg/mL ([3]; Viability (%), –Irr): 101% | viability at 82 min, 3.16 μg/mL ([3]; Viability (%), –Irr): 100% | viability at 82 min, 10 μg/mL ([3]; Viability (%), –Irr): 97.4% | viability at 82 min, 31.6 μg/mL ([3]; Viability (%), –Irr): 98.3% | viability at 82 min, 100 μg/mL ([3]; Viability (%), –Irr, 100 μg/mL): 100% | viability at 82 min, 316 μg/mL ([3]; Viability (%), –Irr): 101% | viability at 82 min, 1000 μg/mL ([3]; Viability (%), –Irr): 93% | viability ([3]; Irr+): 105 ± 4% | viability ([3]; Irr−): 99 ± 3%
